# Activity calls are given as the source filed them.
# What was measured:
# [1] = target: T1, Zinc finger protein mex-5 (Caenorhabditis elegans, UniProt Q9XUB2); test: MEX-5/TCR-2 RNA interaction inhibitors, dose response, biochemical, C. elegans, fluorescence polarization (AID 1960)
# T1 sequence (Q9XUB2 whole entry): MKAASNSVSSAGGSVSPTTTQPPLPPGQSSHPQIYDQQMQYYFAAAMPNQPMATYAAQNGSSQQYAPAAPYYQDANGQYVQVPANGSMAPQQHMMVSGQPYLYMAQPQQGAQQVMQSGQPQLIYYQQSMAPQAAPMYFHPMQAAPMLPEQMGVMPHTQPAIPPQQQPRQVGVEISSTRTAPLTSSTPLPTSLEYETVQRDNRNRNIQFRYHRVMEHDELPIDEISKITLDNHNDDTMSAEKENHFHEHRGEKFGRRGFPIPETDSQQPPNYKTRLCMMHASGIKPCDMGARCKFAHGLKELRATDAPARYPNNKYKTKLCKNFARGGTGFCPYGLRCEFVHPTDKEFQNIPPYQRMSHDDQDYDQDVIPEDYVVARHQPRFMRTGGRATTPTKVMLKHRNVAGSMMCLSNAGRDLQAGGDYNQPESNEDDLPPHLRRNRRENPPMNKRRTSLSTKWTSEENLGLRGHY
# [2] = target: T2, Microphthalmia-associated transcription factor (Homo sapiens, UniProt O75030); test: TRPM1 promoter luciferase signal decrease, dose response, MITF inhibitor project, cell-based, SK-MEL-5, cherry-picked, set 3 (AID 493073); format: functional
# T2 sequence (O75030 whole entry): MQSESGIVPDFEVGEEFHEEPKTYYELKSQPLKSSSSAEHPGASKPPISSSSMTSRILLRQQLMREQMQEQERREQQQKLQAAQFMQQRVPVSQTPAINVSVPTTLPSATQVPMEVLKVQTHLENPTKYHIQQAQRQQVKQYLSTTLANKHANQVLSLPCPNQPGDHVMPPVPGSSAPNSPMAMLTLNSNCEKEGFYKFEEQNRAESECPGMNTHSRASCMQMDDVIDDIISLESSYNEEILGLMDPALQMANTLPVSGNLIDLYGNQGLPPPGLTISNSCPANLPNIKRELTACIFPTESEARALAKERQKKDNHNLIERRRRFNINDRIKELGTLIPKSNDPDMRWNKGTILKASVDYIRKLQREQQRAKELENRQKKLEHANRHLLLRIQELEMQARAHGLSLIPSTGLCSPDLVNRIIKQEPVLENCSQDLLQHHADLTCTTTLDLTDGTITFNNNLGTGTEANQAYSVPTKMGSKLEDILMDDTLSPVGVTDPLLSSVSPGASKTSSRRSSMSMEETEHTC
# [3] = target: T3, Histone-lysine N-methyltransferase NSD2 (Homo sapiens, UniProt O96028); format: biochemical
# T3 sequence (O96028 whole entry): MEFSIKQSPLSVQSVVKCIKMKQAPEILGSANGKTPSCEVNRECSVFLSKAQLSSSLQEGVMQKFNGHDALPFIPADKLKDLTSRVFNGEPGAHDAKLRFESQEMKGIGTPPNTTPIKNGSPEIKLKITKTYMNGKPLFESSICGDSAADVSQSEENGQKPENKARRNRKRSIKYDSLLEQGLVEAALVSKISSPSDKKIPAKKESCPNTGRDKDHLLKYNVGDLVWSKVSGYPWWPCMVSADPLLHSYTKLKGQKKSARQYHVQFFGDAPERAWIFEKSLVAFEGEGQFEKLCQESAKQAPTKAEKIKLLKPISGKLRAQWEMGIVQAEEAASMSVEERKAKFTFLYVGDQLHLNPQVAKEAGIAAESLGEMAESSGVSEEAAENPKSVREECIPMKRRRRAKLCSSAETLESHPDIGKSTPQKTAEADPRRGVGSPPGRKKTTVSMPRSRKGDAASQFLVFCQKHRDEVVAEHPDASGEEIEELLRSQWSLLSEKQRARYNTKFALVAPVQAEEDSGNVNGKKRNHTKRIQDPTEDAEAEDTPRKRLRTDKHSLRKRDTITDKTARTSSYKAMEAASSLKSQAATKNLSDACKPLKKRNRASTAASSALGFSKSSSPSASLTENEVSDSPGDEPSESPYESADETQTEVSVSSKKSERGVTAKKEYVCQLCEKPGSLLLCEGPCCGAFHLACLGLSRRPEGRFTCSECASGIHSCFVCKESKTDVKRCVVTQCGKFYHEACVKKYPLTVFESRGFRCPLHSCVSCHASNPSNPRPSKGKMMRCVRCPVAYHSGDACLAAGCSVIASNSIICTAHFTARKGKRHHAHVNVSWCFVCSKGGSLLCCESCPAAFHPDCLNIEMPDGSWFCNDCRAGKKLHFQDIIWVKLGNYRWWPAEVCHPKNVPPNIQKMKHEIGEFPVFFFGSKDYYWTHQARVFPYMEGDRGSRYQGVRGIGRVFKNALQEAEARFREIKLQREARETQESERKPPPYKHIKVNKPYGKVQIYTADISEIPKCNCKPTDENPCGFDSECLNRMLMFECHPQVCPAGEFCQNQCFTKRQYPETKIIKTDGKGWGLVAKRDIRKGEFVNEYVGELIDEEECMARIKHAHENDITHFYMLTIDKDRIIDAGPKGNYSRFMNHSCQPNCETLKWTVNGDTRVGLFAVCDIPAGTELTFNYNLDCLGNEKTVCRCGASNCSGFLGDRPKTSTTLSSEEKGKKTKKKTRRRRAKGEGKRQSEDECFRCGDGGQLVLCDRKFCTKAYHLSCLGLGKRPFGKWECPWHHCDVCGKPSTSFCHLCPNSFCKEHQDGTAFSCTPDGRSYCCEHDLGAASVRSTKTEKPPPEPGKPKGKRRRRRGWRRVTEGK
# [4] = cytotoxicity in HEK-293T cells, dose response, cytotoxicity control for TCR NF-kB inhibitor project, luminescence, T-cell screen hits (AID 489026); format: functional, cell-based;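 further: cells exposed to compound about 14 hours before the viability readout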
# [5] = growth suppression of beta-catenin-knockout colon cells, dose response, cell-based, HCT116, human colon tumor (AID 1045); format: functional;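 further: HCT116 colon tumor cells with beta catenin knocked out; cells exposed to compound for 60 hours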
structure (smiles),measurement,setting,value
O=[N+]([O-])c1ccc(/C=N/n2cnc3ccccc32)s1,EC50,[1],> 300 µM (inconclusive)
same,AC50,[2],6.25 µM (active)
CC(C)c1ccc(S(=O)(=O)/N=C2\C=C(NS(=O)(=O)c3ccccc3)C(=O)c3ccccc32)cc1,AC50,[3],4 µM (active)
COc1ccc(CNC(=O)c2c(C)oc3c2C(=O)c2ccccc2C3=O)cc1,IC50,[4],21.5 µM (inactive)
same,EC50,[5],13.9 µM (active)
